The text below walks through data of patent US20260285875A1, “INHIBITORS OF PARG” (858 Therapeutics, Inc., priority 2023, published 2026).

This experiment concerns the target T1, cellular PARG (Homo sapiens, UniProt Q86W56).
T1 construct: endogenous in cells; host or cells: HeLa
The experiment in a line: Nuclear PAR accumulation assay (immunofluorescence high-content imaging, MMS-treated HeLa cells). The format is cell-based. Conditions: 1 hour compound then MMS 50 μg/mL for an additional hour. On the procedure:
HeLa cells were plated at 15,000 cells/well in a 96-well plate the day before compound treatment and then treated with varying concentrations of test compound and incubated for 1 hour at 37° C.+5% CO2. Following test compound treatment, methylmethane sulfonate (MMS) was added to a final concentration of 50 μg/mL and the cells were incubated for an additional hour. Following treatment, the cells were fixed with ice cold 95% methanol and the plates sealed and placed at -20° C. for 15 minutes. The cells were then washed once with phosphate buffered saline (PBS) and permeabilized with 0.10% Triton-X 100 for 20 minutes at room temperature. […] The cells were then washed three times with PBS before incubation with a fluorescently conjugated goat anti-mouse antibody (Invitrogen A32723) diluted 1:500 in 5% FBS+0.1% Tween-20+PBS for 1 hour at room temperature. The cells were again washed three times with PBS and the nuclei labeled by incubating with 1 μg/mL DAPI (4′,6-diamidino-2-phenylindole). Nuclear PAR accumulation was evaluated using high-content fluorescence microscopy. Four fields for each well were acquired at 20× magnification resulting in at least 1,000 cells analyzed per well. […] Both the average intensity per nucleus and percent PAR positive cells were quantified. […] Concentration-response-curves and IC50 values were generated using four parameter logistic curve fit software.
Representative data for exemplary compounds is presented in Table 32, Table 33 and Table 34.

For orientation: IC50 means the point on the concentration scale where inhibition reaches its midpoint. A lower IC50 goes with greater potency.

T1 sequence (Q86W56 whole entry): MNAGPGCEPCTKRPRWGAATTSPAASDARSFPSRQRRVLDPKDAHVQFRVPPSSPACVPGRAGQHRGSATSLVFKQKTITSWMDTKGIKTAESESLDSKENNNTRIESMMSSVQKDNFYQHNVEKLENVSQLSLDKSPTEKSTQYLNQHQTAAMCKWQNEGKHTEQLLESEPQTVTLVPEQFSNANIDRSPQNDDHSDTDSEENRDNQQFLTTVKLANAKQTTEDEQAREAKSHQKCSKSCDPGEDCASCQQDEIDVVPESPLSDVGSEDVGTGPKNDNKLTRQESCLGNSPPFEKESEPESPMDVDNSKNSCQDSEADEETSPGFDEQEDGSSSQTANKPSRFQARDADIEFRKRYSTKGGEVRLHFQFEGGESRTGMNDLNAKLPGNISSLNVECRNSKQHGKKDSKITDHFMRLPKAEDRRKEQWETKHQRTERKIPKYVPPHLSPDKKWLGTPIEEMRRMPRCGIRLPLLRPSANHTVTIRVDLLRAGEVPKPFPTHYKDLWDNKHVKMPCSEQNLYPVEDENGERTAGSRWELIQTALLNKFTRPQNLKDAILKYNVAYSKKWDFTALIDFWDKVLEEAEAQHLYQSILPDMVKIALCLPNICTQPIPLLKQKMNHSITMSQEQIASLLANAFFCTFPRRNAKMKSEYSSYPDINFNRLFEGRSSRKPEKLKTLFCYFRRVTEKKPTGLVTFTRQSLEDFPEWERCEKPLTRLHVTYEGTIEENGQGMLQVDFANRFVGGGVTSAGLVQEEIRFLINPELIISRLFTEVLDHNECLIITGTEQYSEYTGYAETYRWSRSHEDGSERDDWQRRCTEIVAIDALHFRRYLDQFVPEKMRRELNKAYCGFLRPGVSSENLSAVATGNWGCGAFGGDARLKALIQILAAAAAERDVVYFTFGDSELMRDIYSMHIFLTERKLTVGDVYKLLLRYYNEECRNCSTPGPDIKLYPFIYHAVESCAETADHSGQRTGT

As to `Cn1cc(CN2C(=O)c3cc(S(=O)(=O)NC4(C)CC4)ccc3N3C2=NC[C@H]3C2CCC(F)(F)CC2)cn1` [Example 45, (R)-1-(4,4-difluorocyclohexyl)-4-((1-methyl-1H-pyrazol-4-yl)methyl)-N-(1-methylcyclopropyl)-5-oxo-1,2,4,5-tetrahydroimidazo[1,2-a]quinazoline-7-sulfonamide], the half-inhibitory concentration (IC50) was < 100 nM.

Turning to `CN(C)C(=O)N1CCN(c2cc(S(=O)(=O)NC3(C)CC3)cc3c2N2CC(C)(C)N=C2N(C)C3=O)CC1` [Example 46, N,N-dimethyl-4-(2,2,4-trimethyl-7-(N-(1-methylcyclopropyl)sulfamoyl)-5-oxo-1,2,4,5-tetrahydroimidazo[1,2-a]quinazolin-9-yl)piperazine-1-carboxamide], the concentration for half-maximal inhibition (IC50) was < 100 nM.

With `Cn1cc(CN2C(=O)c3cc(S(=O)(=O)NC4(C)CC4)ccc3N3C2=NC[C@H]3C(F)F)cn1` [Example 47, (S)-1-(difluoromethyl)-4-((1-methyl-1H-pyrazol-4-yl)methyl)-N-(1-methylcyclopropyl)-5-oxo-1,2,4,5-tetrahydroimidazo[1,2-a]quinazoline-7-sulfonamide], the IC50 was < 100 nM.

With `Cn1cc(CN2C(=O)c3cc(S(=O)(=O)NC4(C)CC4)ccc3N3C2=NC[C@H]3C2CCCC2)cn1` [Example 48, (R)-1-cyclopentyl-4-((1-methyl-1H-pyrazol-4-yl)methyl)-N-(1-methylcyclopropyl)-5-oxo-1,2,4,5-tetrahydroimidazo[1,2-a]quinazoline-7-sulfonamide], the half-maximal inhibitory concentration (IC50) was < 100 nM.

With `[2H]C([2H])(c1cnn(C)c1)N1C(=O)c2cc(S(=O)(=O)NC3(C)CC3)ccc2N2C1=NC[C@H]2C#CC1(C)CC1` [Example 49, (R)-4-((1-methyl-1H-pyrazol-4-yl)methyl-d2)-N-(1-methylcyclopropyl)-1-((1-methylcyclopropyl)ethynyl)-5-oxo-1,2,4,5-tetrahydroimidazo[1,2-a]quinazoline-7-sulfonamide], the IC50 was < 100 nM.

Compound `CNC(=O)c1ccc(-c2cc(S(=O)(=O)NC3(C)CC3)cc3c2N2C(=N[C@H]4CCC[C@H]42)N(C)C3=O)cn1` [Example 50, N-methyl-5-((7aS,10aR)-6-methyl-3-(N-(1-methylcyclopropyl)sulfamoyl)-5-oxo-6,7a,8,9,10,10a-hexahydro-5H-cyclopenta[4,5]imidazo[1,2-a]quinazolin-1-yl)picolinamide] came in with a half-inhibitory concentration (IC50) of 100 to 1000 nM.

For `C#C[C@@H]1CN=C2N(C)C(=O)c3cc(S(=O)(=O)NC4(C)CC4)cc(Cl)c3N21` [Example 51, (R)-9-chloro-1-ethynyl-4-methyl-N-(1-methylcyclopropyl)-5-oxo-1,2,4,5-tetrahydroimidazo[1,2-a]quinazoline-7-sulfonamide], the half-inhibitory concentration (IC50) is < 100 nM.

For the compound `CN1C(=O)c2cc(S(=O)(=O)NC3(C)CC3)cc(C3=CCN(C(=O)C4CC4)CC3)c2N2C1=N[C@H]1CCC[C@H]12` [Example 52, (7aS,10aR)-1-(1-(cyclopropanecarbonyl)-1,2,3,6-tetrahydropyridin-4-yl)-6-methyl-N-(1-methylcyclopropyl)-5-oxo-6,7a,8,9,10,10a-hexahydro-5H-cyclopenta[4,5]imidazo[1,2-a]quinazoline-3-sulfonamide], the IC50 was < 100 nM.

In turn, `C[C@@H]1CN=C2N(Cc3cnn(C)c3)C(=O)c3cc(S(=O)(=O)NC4(C)CC4)cc(N4C[C@H](C)N[C@@H](C)C4)c3N21` [Example 53, (R)-9-((3S,5S)-3,5-dimethylpiperazin-1-yl)-1-methyl-4-((1-methyl-1H-pyrazol-4-yl)methyl)-N-(1-methylcyclopropyl)-5-oxo-1,2,4,5-tetrahydroimidazo[1,2-a]quinazoline-7-sulfonamide] yielded an IC50 of 1000 to 10000 nM.

Compound `C[C@H]1CN(c2cc(S(=O)(=O)NC3(C)CC3)cc3c2N2CC(C)(C)N=C2N(C)C3=O)C[C@H](C)N1` [Example 54, 9-((3S,5S)-3,5-dimethylpiperazin-1-yl)-2,2,4-trimethyl-N-(1-methylcyclopropyl)-5-oxo-1,2,4,5-tetrahydroimidazo[1,2-a]quinazoline-7-sulfonamide] gave an IC50 of 100 to 1000 nM.

Take `[2H]C([2H])(c1cnn(C)c1)N1C(=O)c2cc(S(=O)(=O)NC3(C)CC3)ccc2N2C1=NC[C@H]2C#CCN(C)C` [Example 55, (R)-1-(3-(dimethylamino)prop-1-yn-1-yl)-4-((1-methyl-1H-pyrazol-4-yl)methyl-d2)-N-(1-methylcyclopropyl)-5-oxo-1,2,4,5-tetrahydroimidazo[1,2-a]quinazoline-7-sulfonamide]: the IC50 is < 100 nM.

As for `CN(C)CC#C[C@@H]1CN=C2N(C)C(=O)c3cc(S(=O)(=O)NC4(C)CC4)cc(Cl)c3N21` [Example 56, (R)-9-chloro-1-(3-(dimethylamino)prop-1-yn-1-yl)-4-methyl-N-(1-methylcyclopropyl)-5-oxo-1,2,4,5-tetrahydroimidazo[1,2-a]quinazoline-7-sulfonamide], the IC50 is < 100 nM.

Regarding `COc1ccc(C(=O)/C=C/C(=O)N2CCN(c3cc(S(=O)(=O)NC4(C)CC4)cc4c3N3C(=NC[C@H]3C)N(C)C4=O)CC2)cc1` [Example 57, (R,E)-9-(4-(4-(4-methoxyphenyl)-4-oxobut-2-enoyl)piperazin-1-yl)-1,4-dimethyl-N-(1-methylcyclopropyl)-5-oxo-1,2,4,5-tetrahydroimidazo[1,2-a]quinazoline-7-sulfonamide], the IC50 was in the range of 100 to 1000 nM.

In turn, `CNC(=O)c1ccc(-c2cc(S(=O)(=O)NC3(C)CC3)cc3c2N2CC(C)(C)N=C2N(C)C3=O)cn1` [Example 58, N-methyl-5-(2,2,4-trimethyl-7-(N-(1-methylcyclopropyl)sulfamoyl)-5-oxo-1,2,4,5-tetrahydroimidazo[1,2-a]quinazolin-9-yl)picolinamide] gave an IC50 of 100 to 1000 nM.

`CN1C(=O)c2cc(S(=O)(=O)NC3(C)CC3)cc(C3=CCN(C(=O)C4CC4)CC3)c2N2CC(C)(C)N=C12` [Example 59, 9-(1-(cyclopropanecarbonyl)-1,2,3,6-tetrahydropyridin-4-yl)-2,2,4-trimethyl-N-(1-methylcyclopropyl)-5-oxo-1,2,4,5-tetrahydroimidazo[1,2-a]quinazoline-7-sulfonamide] displayed an IC50 of 100 to 1000 nM.

For `Cc1cc(F)ccc1-c1cc(S(=O)(=O)NC2(C)CC2)cc2c1N1CC(C)(C)N=C1N(C)C2=O` [Example 61, 9-(4-fluoro-2-methylphenyl)-2,2,4-trimethyl-N-(1-methylcyclopropyl)-5-oxo-1,2,4,5-tetrahydroimidazo[1,2-a]quinazoline-7-sulfonamide], the IC50 is 100 to 1000 nM.

`C[C@@H]1CN=C2N(C)C(=O)c3cc(S(=O)(=O)NC4(C)CC4)cc(-c4ccccc4CO)c3N21` [Example 62, (R)-9-(2-(hydroxymethyl)phenyl)-1,4-dimethyl-N-(1-methylcyclopropyl)-5-oxo-1,2,4,5-tetrahydroimidazo[1,2-a]quinazoline-7-sulfonamide] returned an IC50 of 1000 to 10000 nM.

The compound `C[C@@H]1CN=C2N(C)C(=O)c3cc(S(=O)(=O)NC4(C)CC4)cc(-c4ccccc4C#N)c3N21` [Example 63, (R)-9-(2-cyanophenyl)-1,4-dimethyl-N-(1-methylcyclopropyl)-5-oxo-1,2,4,5-tetrahydroimidazo[1,2-a]quinazoline-7-sulfonamide] came in with an IC50 of 1000 to 10000 nM.
